Measurements taken from US20090062251A1, “Novel Compounds 002” (ASTRAZENECA AB, priority 2007, published 2009).

Columns and labels:
[1] = biological target: T1, Human CB1 receptor (hCB1) (Homo sapiens, UniProt P21554); experiment: hCB1 GTPγS binding; type: biochemical; settings: for EC50: hCB1 membranes, GTPγ35S, 10-point dose-response; for Emax: maximal stimulated binding determined with 10 μM Win 55,212-2
T1 construct: purchased Receptor Biology
Procedure: hCB1 and hCB2 GTPγS Binding
Human CB1 receptor from Receptor Biology (hCB1) or human CB2 receptor membranes (BioSignal) are thawed at 37° C., passed 3 times through a 25-gauge blunt-end needle and diluted in the GTPγS binding buffer (50 mM Hepes, 20 mM NaOH, 100 mM NaCl, 1 mM EDTA, 5 mM MgCl2, pH 7.4, 0.1% BSA). […] The basal and maximal stimulated binding is determined in absence and presence of 1 μM (hCB2) or 10 μM (hCB1) Win 55, 212-2 respectively. The membranes are pre-incubated for 5 minutes with 56.25 μM (hCB2) or 112.5 μM (hCB1) GDP prior to distribution in plates (15 μM (hCB2) or 30 μM (hCB1) GDP final). The plates are vortexed and incubated for 60 minutes at room temperature, filtered on Unifilters GF/B (presoaked in water) with the Tomtec or Packard harvester using 3 ml of wash buffer (50 mM Tris, 5 mM MgCl2, 50 mM NaCl, pH 7.0). The filters are dried for 1 hour at 55° C. The radioactivity (cpm) is counted in a TopCount (Packard) after adding 65 μl/well of MS-20 scintillation liquid. Antagonist reversal studies are done in the same way except that (a) an agonist dose-response curve is done in the presence of a constant concentration of antagonist, or (b) an antagonist dose-response curve is done in the presence of a constant concentration of agonist.

[2] = biological target: T1, Human CB1 receptor (hCB1); experiment: hCB1 receptor binding (3H-CP55,940 displacement); settings: hCB1 membranes, Ki=IC50/(1+[rad]/Kd)
Procedure: hCB1 and hCB2 Receptor Binding
Human CB1 receptor from Receptor Biology (hCB1) or human CB2 receptor from BioSignal (hCB2) membranes are thawed at 37° C., passed 3 times through a 25-gauge blunt-end needle, diluted in the cannabinoid binding buffer (50 mM Tris, 2.5 mM EDTA, 5 mM MgCl2, and 0.5 mg/mL BSA fatty acid free, pH 7.4) and aliquots containing the appropriate amount of protein are distributed in 96-well plates. […] The total and non-specific binding are determined in the absence and presence of 0.2 μM of HU210 respectively. The plates are vortexed and incubated for 60 minutes at room temperature, filtered through Unifilters GF/B (presoaked in 0.1% polyethyleneimine) with the Tomtec or Packard harvester using 3 mL of wash buffer (50 mM Tris, 5 mM MgCl2, 0.5 mg BSA pH 7.0). The filters are dried for 1 hour at 55° C. The radioactivity (cpm) is counted in a TopCount (Packard) after adding 65 μl/well of MS-20 scintillation liquid.
Based on the above assays, the dissociation constant (Ki) for a particular compound of the invention towards a particular receptor is determined using the following equation:
[rad] is a standard or reference radioactive ligand concentration at that moment; and
Kd is the dissociation constant of the radioactive ligand towards the particular receptor.

T1 sequence (P21554 whole entry): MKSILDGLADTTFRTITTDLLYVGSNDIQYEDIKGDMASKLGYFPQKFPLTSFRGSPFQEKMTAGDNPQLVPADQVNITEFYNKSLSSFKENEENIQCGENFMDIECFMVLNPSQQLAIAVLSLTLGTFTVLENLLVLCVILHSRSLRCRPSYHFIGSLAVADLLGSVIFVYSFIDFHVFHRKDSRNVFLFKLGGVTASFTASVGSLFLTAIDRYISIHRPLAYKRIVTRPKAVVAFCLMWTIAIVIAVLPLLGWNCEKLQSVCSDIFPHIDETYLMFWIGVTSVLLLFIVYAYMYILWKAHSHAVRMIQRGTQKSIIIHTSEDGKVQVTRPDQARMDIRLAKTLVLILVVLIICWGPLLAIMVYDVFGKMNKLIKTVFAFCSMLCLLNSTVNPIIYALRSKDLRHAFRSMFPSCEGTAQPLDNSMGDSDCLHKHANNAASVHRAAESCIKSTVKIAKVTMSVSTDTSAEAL

Structure (SMILES) | EC50 [1] [nM] | Emax [1] [%] | Ki [2] [nM]
CCNC(=O)CN(CC)C(=O)c1ccc2c(c1)c1c(n2C(=O)N(C)C)CCC(C2CCOCC2)C1 (stereo not shown) [N-ethyl-N-(ethylcarbamoylmethyl)-N′,N′-dimethyl-6-(oxan-4-yl)-5,6,7,8-tetrahydrocarbazole-3,9-dicarboxamide] | > 30000 | > 42 | > 3480
CCN(CC(=O)NCC(F)F)C(=O)c1ccc2c(c1)c1c(n2C)CCC(C2CCOCC2)C1 (stereo not shown) [N-(2,2-difluoroethylcarbamoylmethyl)-N-ethyl-9-methyl-6-(oxan-4-yl)-5,6,7,8-tetrahydrocarbazole-3-carboxamide] | 39.9 | 116 | 17.1
CCn1c2c(c3cc(C(=O)N4CCC(C)CC4)ccc31)CC(C1CCCCC1)CC2 (stereo not shown) [(6-cyclohexyl-9-ethyl-5,6,7,8-tetrahydrocarbazol-3-yl)-(4-methyl-1-piperidyl)methanone] | 234 | 90 | 82.3
CCNC(=O)CCCN(C)C(=O)c1ccc2c(c1)c1c(n2CCF)CCC(C2CCOCC2)C1 (stereo not shown) [N-[3-(ethylcarbamoyl)propyl]-9-(2-fluoroethyl)-N-methyl-6-(oxan-4-yl)-5,6,7,8-tetrahydrocarbazole-3-carboxamide] | 372 | 109 | 237
CN(CCCC(=O)NCCO)C(=O)c1ccc2c(c1)c1c(n2C)CCC(C2CCOCC2)C1 (stereo not shown) [N-[3-(2-hydroxyethylcarbamoyl)propyl]-N,9-dimethyl-6-(oxan-4-yl)-5,6,7,8-tetrahydrocarbazole-3-carboxamide] | 155 | 122 | 90.9
CCN(CC(=O)NC(C)C)C(=O)c1ccc2c(c1)c1c(n2C)CCC(C2CCOCC2)C1 (stereo not shown) [N-ethyl-9-methyl-6-(oxan-4-yl)-N-(propan-2-ylcarbamoylmethyl)-5,6,7,8-tetrahydrocarbazole-3-carboxamide] | 41.7 | 123 | 31.3
CCn1c2c(c3cc(C(=O)N(C)CCCC(=O)NCCO)ccc31)CC(C1CCOCC1)CC2 (stereo not shown) [9-ethyl-N-[3-(2-hydroxyethylcarbamoyl)propyl]-N-methyl-6-(oxan-4-yl)-5,6,7,8-tetrahydrocarbazole-3-carboxamide] | 597 | 119 | 236
CN(CCCC(=O)NCCO)C(=O)c1ccc2c(c1)c1c(n2C)CC[C@@H](C2CCOCC2)C1 [(R)—N-(4-(2-Hydroxyethylamino)-4-oxobutyl)-N,9-dimethyl-3-(tetrahydro-2H-pyran-4-yl)-2,3,4,9-tetrahydro-1H-carbazole-6-carboxamide] | 173 | 120 | 69
CN(CCN(C)C(=S)NC1CC1)C(=O)c1ccc2c(c1)c1c(n2C)CCC(C2CCOCC2)C1 (stereo not shown) [N-[2-(cyclopropylthiocarbamoyl-methyl-amino)ethyl]-N,9-dimethyl-6-(oxan-4-yl)-5,6,7,8-tetrahydrocarbazole-3-carboxamide] | 161 | 106 | 9.9
CCN(CC(=O)NCCF)C(=O)c1ccc2c(c1)c1c(n2C2CCC2)CCC(C2CCOCC2)C1 (stereo not shown) [9-cyclobutyl-N-ethyl-N-(2-fluoroethylcarbamoylmethyl)-6-(oxan-4-yl)-5,6,7,8-tetrahydrocarbazole-3-carboxamide] | 279 | 80 | 131
CCN(CC(=O)N[C@H]1CCOC1)C(=O)c1ccc2c(c1)c1c(n2C)CCC(C2CCOCC2)C1 (stereo partly drawn) [N-ethyl-9-methyl-6-(oxan-4-yl)-N-[[(3S)-oxolan-3-yl]carbamoylmethyl]-5,6,7,8-tetrahydrocarbazole-3-carboxamide] | 100 | 122 | 58.1
Cn1c2c(c3cc(C(=O)N4CC(C(=O)NC5CC5)C4)ccc31)CC(C1CCOCC1)CC2 (stereo not shown) [N-cyclopropyl-1-[9-methyl-6-(oxan-4-yl)5,6,7,8-tetrahydrocarbazole-3-carbonyl]azetidine-3-carboxamide] | 274 | 121 | 107
Cn1c2c(c3cc(C(=O)N4CC[C@H](C(=O)NCC5CC5)C4)ccc31)CC(C1CCOCC1)CC2 (stereo partly drawn) [(3S)—N-(cyclopropylmethyl)-1-[9-methyl-6-(oxan-4-yl)5,6,7,8-tetrahydrocarbazole-3-carbonyl]pyrrolidine-3-carboxamide] | 251 | 117 | 109
CCN(CC(=O)NC(C)C)C(=O)c1ccc2c(c1)c1c(n2C2CCC2)CCC(C2CCOCC2)C1 (stereo not shown) [9-cyclobutyl-N-ethyl-6-(oxan-4-yl)-N-(propan-2-ylcarbamoylmethyl)-5,6,7,8-tetrahydrocarbazole-3-carboxamide] | 293 | 70 | 152
CCNC(=O)CC[C@@H](CO)N(C)C(=O)c1ccc2c(c1)c1c(n2C)CC[C@@H](C2CCOCC2)C1 [(R)—N-((S)-5-(Ethylamino)-1-hydroxy-5-oxopentan-2-yl)-N,9-dimethyl-3-(tetrahydro-2H-pyran-4-yl)-2,3,4,9-tetrahydro-1H-carbazole-6-carboxamide] | 79 | 126 | 36
CCn1c2c(c3cc(C(=O)N(C)CCCC(=O)NCC(F)(F)F)ccc31)CC(C1CCOCC1)CC2 (stereo not shown) [9-ethyl-N-methyl-6-(oxan-4-yl)-N-[3-(2,2,2-trifluoroethylcarbamoyl)propyl]-5,6,7,8-tetrahydrocarbazole-3-carboxamide] | 228 | 98 | 110
CNCCN(C)C(=O)c1ccc2c(c1)c1c(n2C)CCC(C2CCOCC2)C1 (stereo not shown) [N,9-dimethyl-N-(2-methylaminoethyl)-6-(oxan-4-yl)-5,6,7,8-tetrahydrocarbazole-3-carboxamide] |  |  | > 8720
CCN(CC(=O)NC1(C#N)CC1)C(=O)c1ccc2c(c1)c1c(n2C)CCC(C2CCOCC2)C1 (stereo not shown) [N-[(1-cyanocyclopropyl)carbamoylmethyl]-N-ethyl-9-methyl-6-(oxan-4-yl)-5,6,7,8-tetrahydrocarbazole-3-carboxamide] |  |  | > 1170
C[C@@H](C(=O)NCCF)N(C)C(=O)c1ccc2c(c1)c1c(n2C)CCC(C2CCOCC2)C1 (stereo partly drawn) [N-[(1S)-1-(2-fluoroethylcarbamoyl)ethyl]-N,9-dimethyl-6-(oxan-4-yl)-5,6,7,8-tetrahydrocarbazole-3-carboxamide] |  |  | > 1400
C[C@@H](C(=O)NC1CC1)N(C)C(=O)c1ccc2c(c1)c1c(n2C)CCC(C2CCOCC2)C1 (stereo partly drawn) [N-[(1S)-1-(cyclopropylcarbamoyl)ethyl]-N,9-dimethyl-6-(oxan-4-yl)-5,6,7,8-tetrahydrocarbazole-3-carboxamide] |  |  | > 3530
CN(C(=O)c1ccc2c(c1)c1c(n2C)CCC(C2CCOCC2)C1)C1(C(=O)NC2CC2)CC1 (stereo not shown) [N-[1-(cyclopropylcarbamoyl)cyclopropyl]-N,9-dimethyl-6-(oxan-4-yl)-5,6,7,8-tetrahydrocarbazole-3-carboxamide] |  |  | 371
CN(CCC(=O)NC1CC1)C(=O)c1ccc2c(c1)c1c(n2C)CCC(C2CCOCC2)C1 (stereo not shown) [N-[2-(cyclopropylcarbamoyl)ethyl]-N,9-dimethyl-6-(oxan-4-yl)-5,6,7,8-tetrahydrocarbazole-3-carboxamide] |  |  | 655
Cn1c2c(c3cc(C(=O)NCCCC(=O)NC4CC4)ccc31)CC(C1CCOCC1)CC2 (stereo not shown) [N-[3-(cyclopropylcarbamoyl)propyl]-9-methyl-6-(oxan-4-yl)-5,6,7,8-tetrahydrocarbazole-3-carboxamide] |  |  | 1440
Cn1c2c(c3cc(C(=O)NCCF)ccc31)CC(C1CCOCC1)CC2 (stereo not shown) [N-(2-fluoroethyl)-9-methyl-6-(oxan-4-yl)-5,6,7,8-tetrahydrocarbazole-3-carboxamide] |  |  | 659
CCN(CC(=O)NCC#N)C(=O)c1ccc2c(c1)c1c(n2C)CCC(C2CCOCC2)C1 (stereo not shown) [N-(cyanomethylcarbamoylmethyl)-N-ethyl-9-methyl-6-(oxan-4-yl)-5,6,7,8-tetrahydrocarbazole-3-carboxamide] |  |  | 333
Cn1c2c(c3cc(C(=O)N4CC(CC(=O)NC5CC5)C4)ccc31)CC(C1CCOCC1)CC2 (stereo not shown) [N-cyclopropyl-2-[1-[9-methyl-6-(oxan-4-yl)5,6,7,8-tetrahydrocarbazole-3-carbonyl]azetidin-3-yl]acetamide] |  |  | 2080
